# Measurements: paper PMC10562414, “GLP-1R signaling neighborhoods associate with the susceptibility to adverse drug reactions of incretin mimetics” (Nature Communications, 2023)
# Legend:
# GLP-1R [1] = target: T1, GLP-1R (Homo sapiens, UniProt P43220); experiment: ebBRET pathway activation (15 pathways) at the Golgi apparatus (tdrGFP-Giantin); format: cell-based; settings: for Efficacy (normalized) / Potency (logEC50) / Emax: Golgi apparatus
# GLP-1R [2] = target: T1, GLP-1R; experiment: ebBRET pathway activation (15 pathways) at early endosomes (rGFP-FYVE); format: cell-based; settings: for Efficacy (normalized) / Potency (logEC50) / Emax: Early endosomes
# Method: Subcellular resolution was achieved by using organelle-specific energy acceptors for early endosomes, the Golgi apparatus and the endoplasmic reticulum.
# Data are represented as the mean ± SEM (n = 3 biologically independent experiments). EE early endosomes, GA Golgi apparatus, ER endoplasmic reticulum.
# HEK293 cells were cultured in DMEM supplemented with 10% FBS, 1% penicillin/streptomycin, propagated in plastic flasks and grown at 37 °C in 5% CO2 and 90% humidity. […] After a 48-hour incubation, cells were washed once with HBSS and maintained in the same buffer.
# Best fit values were excluded if EC50 was outside of the concentration range tested or if the span was negative.
# Pharmacological characterization of GLP-1R agonist signaling
# profiles at early endosomes. a, Illustration depicting the ebBRET approach to monitoring
# signaling at early endosomes. b, Concentration-response curves of GLP-1R agonists across 15
# pathways at early endosomes using rGFP-F YVE. Data are represented by the non-linear fit and
# scaled according to the highest responding drug (n=3 biologic ally independent samples).
# Drug-s pecific polar area diagrams for efficacy (normalized to the highest responding drug) (c)
# Drugs were deemed to activate
# a given pathway after comparing the top and bottom parameters from non-linear regression by
# Jaccard similarity index for efficacy (e) and potency (f) quantifies similarities and
# differences across drug responses.
# Drug- induced transducer engagement by GLP- 1R at early
# endosomes. Agonist concentration response curves for 15 transducers at early endosomes.
# Drugs were deemed to activate a given pathway after comparing the top and bottom parameters
# from non-linear regression by one-sided extra sum-o f-s quares F-t est followed by Bonferroni
# Data are represented as the mean ± SEM (n=3
# biologically independent samples). Sigmoidal dose-r esponse curves are present for
# responsive pathways and flat lines indicate non-r esponding pathway s.
# Polar area diagrams depict pathway activation at early endosomes.
# Pathway-specific polar area diagrams for efficacy (normalized to the highest responding drug) (a)
# Drugs were deemed to activate a
# given pathway after comparing the top and bottom parameters from non-linear regression by
# T1 sequence (P43220 24-463): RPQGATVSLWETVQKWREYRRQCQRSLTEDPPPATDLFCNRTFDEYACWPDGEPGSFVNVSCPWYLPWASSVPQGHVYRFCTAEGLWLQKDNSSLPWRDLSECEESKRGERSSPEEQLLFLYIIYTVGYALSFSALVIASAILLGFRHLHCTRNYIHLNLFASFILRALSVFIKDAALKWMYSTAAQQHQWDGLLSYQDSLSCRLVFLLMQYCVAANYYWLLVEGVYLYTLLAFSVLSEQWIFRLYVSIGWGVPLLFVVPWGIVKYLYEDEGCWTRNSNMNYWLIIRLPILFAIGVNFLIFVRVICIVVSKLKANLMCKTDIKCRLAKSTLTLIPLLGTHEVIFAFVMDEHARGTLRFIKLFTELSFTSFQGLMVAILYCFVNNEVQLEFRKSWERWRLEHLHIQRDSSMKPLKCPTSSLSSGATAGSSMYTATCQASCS
compound,measurement,setting,value
N#Cc1ccc(COc2cccc(C3CCN(Cc4nc5ccc(C(=O)O)cc5n4C[C@@H]4CCO4)CC3)n2)c(F)c1 [Danuglipron],Efficacy (normalized),GLP-1R [1]; GRK2/Gβγ,0
same,Potency (logEC50),GLP-1R [1]; GRK2/Gβγ,0
same,Emax,GLP-1R [1]; GRK/Gβγ,0
same,Efficacy (normalized),GLP-1R [1]; Gα11,0
same,Emax,GLP-1R [1]; Gα11,0
same,Potency (logEC50),GLP-1R [1]; Gα11,0
same,Efficacy (normalized),GLP-1R [1]; Gα12,0
same,Emax,GLP-1R [1]; Gα12,0
same,Potency (logEC50),GLP-1R [1]; Gα12,0
same,Efficacy (normalized),GLP-1R [1]; Gα13,0
same,Emax,GLP-1R [1]; Gα13,0
same,Potency (logEC50),GLP-1R [1]; Gα13,0
same,Efficacy (normalized),GLP-1R [1]; Gα14,0
same,Emax,GLP-1R [1]; Gα14,0
same,Potency (logEC50),GLP-1R [1]; Gα14,0
same,Efficacy (normalized),GLP-1R [1]; Gα15,0
same,Emax,GLP-1R [1]; Gα15,0
same,Potency (logEC50),GLP-1R [1]; Gα15,0
same,Efficacy (normalized),GLP-1R [1]; Gαi1,0
same,Emax,GLP-1R [1]; Gαi1,0
same,Potency (logEC50),GLP-1R [1]; Gαi1,0
same,Efficacy (normalized),GLP-1R [1]; Gαi2,0
same,Emax,GLP-1R [1]; Gαi2,0
same,Potency (logEC50),GLP-1R [1]; Gαi2,0
same,Efficacy (normalized),GLP-1R [1]; Gαi3,0
same,Emax,GLP-1R [1]; Gαi3,0
same,Potency (logEC50),GLP-1R [1]; Gαi3,0
same,Efficacy (normalized),GLP-1R [1]; GαoA,0
same,Emax,GLP-1R [1]; GαoA,0
same,Potency (logEC50),GLP-1R [1]; GαoA,0
same,Efficacy (normalized),GLP-1R [1]; GαoB,0
same,Emax,GLP-1R [1]; GαoB,0
same,Potency (logEC50),GLP-1R [1]; GαoB,0
same,Efficacy (normalized),GLP-1R [1]; Gαq,0
same,Emax,GLP-1R [1]; Gαq,0
same,Potency (logEC50),GLP-1R [1]; Gαq,0
same,Efficacy (normalized),GLP-1R [1]; Gαs,0.8077
same,Emax,GLP-1R [1]; Gαs,0.9498
same,Potency (logEC50),GLP-1R [1]; Gαs,0.7638
same,Efficacy (normalized),GLP-1R [1]; Gαz,1
same,Emax,GLP-1R [1]; Gαz,0.06827
same,Potency (logEC50),GLP-1R [1]; Gαz,0.517
same,Emax,GLP-1R [1]; βARR,0.7121
same,Efficacy (normalized),GLP-1R [1]; βARR2,0.4942
same,Potency (logEC50),GLP-1R [1]; βARR2,0.4339
same,"mGs recruitment at the Golgi apparatus, in words","GLP-1R [1]; Rluc8-mGs, tdrGFP-Giantin, 60 min, n = 3",induced a strong response at the Golgi apparatus
same,Efficacy (normalized),GLP-1R [2]; GRK2/Gβγ,0.507
same,Potency (logEC50),GLP-1R [2]; GRK2/Gβγ,0.4671
same,Efficacy (normalized),GLP-1R [2]; Gα11,0
same,Emax,GLP-1R [2]; Gα11,0
same,Potency (logEC50),GLP-1R [2]; Gα11,0
same,Efficacy (normalized),GLP-1R [2]; Gα12,0
same,Emax,GLP-1R [2]; Gα12,0
same,Potency (logEC50),GLP-1R [2]; Gα12,0
same,Efficacy (normalized),GLP-1R [2]; Gα13,0
same,Emax,GLP-1R [2]; Gα13,0
same,Potency (logEC50),GLP-1R [2]; Gα13,0
same,Efficacy (normalized),GLP-1R [2]; Gα14,0.9516
same,Emax,GLP-1R [2]; Gα14,0.02161
same,Potency (logEC50),GLP-1R [2]; Gα14,0.7414
same,Efficacy (normalized),GLP-1R [2]; Gα15,0
same,Emax,GLP-1R [2]; Gα15,0
same,Potency (logEC50),GLP-1R [2]; Gα15,0
same,Efficacy (normalized),GLP-1R [2]; Gαi1,0
same,Emax,GLP-1R [2]; Gαi1,0
same,Potency (logEC50),GLP-1R [2]; Gαi1,0
same,Efficacy (normalized),GLP-1R [2]; Gαi2,0
same,Emax,GLP-1R [2]; Gαi2,0
same,Potency (logEC50),GLP-1R [2]; Gαi2,0
same,Efficacy (normalized),GLP-1R [2]; Gαi3,0
same,Emax,GLP-1R [2]; Gαi3,0
same,Potency (logEC50),GLP-1R [2]; Gαi3,0
same,Efficacy (normalized),GLP-1R [2]; GαoA,0.4649
same,Emax,GLP-1R [2]; GαoA,0.009912
same,Potency (logEC50),GLP-1R [2]; GαoA,0.573
same,Efficacy (normalized),GLP-1R [2]; GαoB,0.7256
same,Emax,GLP-1R [2]; GαoB,0.03076
same,Potency (logEC50),GLP-1R [2]; GαoB,0.2577
same,Efficacy (normalized),GLP-1R [2]; Gαq,0
same,Emax,GLP-1R [2]; Gαq,0
same,Potency (logEC50),GLP-1R [2]; Gαq,0
same,Efficacy (normalized),GLP-1R [2]; Gαs,0
same,Emax,GLP-1R [2]; Gαs,0
same,Potency (logEC50),GLP-1R [2]; Gαs,0
same,Efficacy (normalized),GLP-1R [2]; Gαz,0.5189
same,Emax,GLP-1R [2]; Gαz,0.05365
same,Potency (logEC50),GLP-1R [2]; Gαz,0.2291
same,Efficacy (normalized),GLP-1R [2]; βARR2,0.458
same,Potency (logEC50),GLP-1R [2]; βARR2,0.384
same,Emax,GLP-1R [2]; GRK/Gβγ,0.1194
same,Emax,GLP-1R [2]; βARR,0.07877
same,"mGs recruitment at early endosomes, in words","GLP-1R [2]; Rluc8-mGs, rGFP-FYVE, 60 min, n = 3",did not promote mGs recruitment at early endosomes at the concentrations tested
